Legend:
corn [1] = assay: Foliar spread test for upland field; assay type: in vivo; design: key: 0 = normal development, 5 = all killed (6 ranks vs. untreated); conditions: foliar spray, 500 ppm, 3 weeks, glass house 25° C.
Procedure: (§1) The herbicidal effects are evaluated according to the following 6 ranks as compared with non-treated district. (0: normal development, 1: Less damaged, 2: Slightly damaged, 3: Moderately damaged, 4: Severely damaged, 5: All killed). Incidentally, “-” in the column means not investigated.
(§2) Wagner pots, each having an area of 1/5000 are, were packed with volcanic ash soil and then each seed of corn, soybean, cotton, wheat, solgum, sugar beat, Large crabgrass, barnyardgrjass, green foxtail, blackgrass, annual bluegrass, common lambsquarters, livid amaranth, velvetleaf, morning glory, Xanthium pensylvanicum and Cassia obtusifolia was planted, covered with soil and grown in a glass house at an average temperature of 25° C. for about 2 weeks.
(§3) Each wettable powder of the desired compounds (I) shown in Tables 1 to 21, 24, 25, 28 and 29 prepared in accordance with Example 2 was diluted to 500 ppm with water containing a surfactant (0.5%) and then uniformly sprayed on the above respective plants.
(§4) After these plants were controlled in a glass house at an average temperature of 25° C. for 3 weeks, the herbicidal effects thereof were investigated.
(§5) The herbicidal effects were evaluated according to the evaluation method described in the above (1).

cotton = assay: Foliar spread test for upland field; assay type: in vivo; design: key: 0 = normal development, 5 = all killed (6 ranks vs. untreated); conditions: foliar spray, 500 ppm, 3 weeks, glass house 25° C.
Procedure: as §1, §2, §3, §4, §5

soybean [2] = assay: Foliar spread test for upland field; assay type: in vivo; design: key: 0 = normal development, 5 = all killed (6 ranks vs. untreated); conditions: foliar spray, 500 ppm, 3 weeks, glass house 25° C.
Procedure: as §1, §2, §3, §4, §5

sugar beat [3] = assay: Foliar spread test for upland field; assay type: in vivo; design: key: 0 = normal development, 5 = all killed (6 ranks vs. untreated); conditions: foliar spray, 500 ppm, 3 weeks, glass house 25° C.
Procedure: as §1, §2, §3, §4, §5

wheat [4] = assay: Foliar spread test for upland field; assay type: in vivo; design: key: 0 = normal development, 5 = all killed (6 ranks vs. untreated); conditions: foliar spray, 500 ppm, 3 weeks, glass house 25° C.
Procedure: as §1, §2, §3, §4, §5

solgum [5] = assay: Foliar spread test for upland field; assay type: in vivo; design: key: 0 = normal development, 5 = all killed (6 ranks vs. untreated); conditions: foliar spray, 500 ppm, 3 weeks, glass house 25° C.
Procedure: as §1, §2, §3, §4, §5

barnyard grass = assay: Soil treatment test for upland field; assay type: in vivo, Eschinochloa crusgalli; design: key: 0 = normal development, 5 = all killed; conditions: 500 g/ha, 3 weeks, glass house 25° C.
Procedure: as §1
(§6) Wagner pots, each having an area of 1/5000 are, were packed with Ube soil (alluvial soil), and then each seed of corn, soybean, cotton, wheat, solgum, sugar beat, Large crabgrass, barnyard grass, green foxtail, blackgrass, annual bluegrass, common lambsquarters, livid amaranth, velvetleaf, morning glory, common Cocklebur (Xanthium strumarium) and sicklepod (Cassia obtusifolia) were planted and covered with soil.
(§7) Each wettable powder of the desired compounds (I) shown in Tables 1 to 21, 24, 25, 28 and 29 prepared in accordance with Example 2 was diluted with water containing a surfactant (0.05%) and uniformly sprayed on the surface of each soil so that an effective concentration of the compound (I) in each herbicide became 500 g/ha.
(§8) These plants were controlled in a glass house at an average temperature of 25° C. for 3 weeks, and then herbicidal effects thereof were investigated.
as §5

blackgrass [6] = assay: Foliar spread test for upland field; assay type: in vivo, Alopecurus aegualis; design: key: 0 = normal development, 5 = all killed (6 ranks vs. untreated); conditions: foliar spray, 500 ppm, 3 weeks, glass house 25° C.
Procedure: as §1, §2, §3, §4, §5

corn [7] = assay: Soil treatment test for upland field; assay type: in vivo; design: key: 0 = normal development, 5 = all killed; conditions: 500 g/ha, 3 weeks, glass house 25° C.
Procedure: as §1, §6, §7, §8, §5

soybean [8] = assay: Soil treatment test for upland field; assay type: in vivo; design: key: 0 = normal development, 5 = all killed; conditions: 500 g/ha, 3 weeks, glass house 25° C.
Procedure: as §1, §6, §7, §8, §5

sugar beat [9] = assay: Soil treatment test for upland field; assay type: in vivo; design: key: 0 = normal development, 5 = all killed; conditions: 500 g/ha, 3 weeks, glass house 25° C.
Procedure: as §1, §6, §7, §8, §5

wheat [10] = assay: Soil treatment test for upland field; assay type: in vivo; design: key: 0 = normal development, 5 = all killed; conditions: 500 g/ha, 3 weeks, glass house 25° C.
Procedure: as §1, §6, §7, §8, §5

solgum [11] = assay: Soil treatment test for upland field; assay type: in vivo; design: key: 0 = normal development, 5 = all killed; conditions: 500 g/ha, 3 weeks, glass house 25° C.
Procedure: as §1, §6, §7, §8, §5

morning glory [12] = assay: Soil treatment test for upland field; assay type: in vivo, Ipomoea spps.; design: key: 0 = normal development, 5 = all killed; conditions: 500 g/ha, 3 weeks, glass house 25° C.
Procedure: as §1, §6, §7, §8, §5

livid amaranth [13] = assay: Foliar spread test for upland field; assay type: in vivo, Amaranthus lividus; design: key: 0 = normal development, 5 = all killed (6 ranks vs. untreated); conditions: foliar spray, 500 ppm, 3 weeks, glass house 25° C.
Procedure: as §1, §2, §3, §4, §5

annual bluegrass [14] = assay: Soil treatment test for upland field; assay type: in vivo, Poa annua; design: key: 0 = normal development, 5 = all killed; conditions: 500 g/ha, 3 weeks, glass house 25° C.
Procedure: as §1, §6, §7, §8, §5

morning glory [15] = assay: Foliar spread test for upland field; assay type: in vivo, Ipomoea spps.; design: key: 0 = normal development, 5 = all killed (6 ranks vs. untreated); conditions: foliar spray, 500 ppm, 3 weeks, glass house 25° C.
Procedure: as §1, §2, §3, §4, §5

barnyardgrjass = assay: Foliar spread test for upland field; assay type: in vivo, Eschinochloa crusgalli; design: key: 0 = normal development, 5 = all killed (6 ranks vs. untreated); conditions: foliar spray, 500 ppm, 3 weeks, glass house 25° C.
Procedure: as §1, §2, §3, §4, §5

Large crabgrass [16] = assay: Soil treatment test for upland field; assay type: in vivo, Digitaria adscendens; design: key: 0 = normal development, 5 = all killed; conditions: 500 g/ha, 3 weeks, glass house 25° C.
Procedure: as §1, §6, §7, §8, §5

velvetleaf [17] = assay: Soil treatment test for upland field; assay type: in vivo, Abutilon theophrasti; design: key: 0 = normal development, 5 = all killed; conditions: 500 g/ha, 3 weeks, glass house 25° C.
Procedure: as §1, §6, §7, §8, §5

green foxtail [18] = assay: Soil treatment test for upland field; assay type: in vivo, Setaria viridis; design: key: 0 = normal development, 5 = all killed; conditions: 500 g/ha, 3 weeks, glass house 25° C.
Procedure: as §1, §6, §7, §8, §5

green foxtail [19] = assay: Foliar spread test for upland field; assay type: in vivo, Setaria viridis; design: key: 0 = normal development, 5 = all killed (6 ranks vs. untreated); conditions: foliar spray, 500 ppm, 3 weeks, glass house 25° C.
Procedure: as §1, §2, §3, §4, §5

livid amaranth [20] = assay: Soil treatment test for upland field; assay type: in vivo, Amaranthus lividus; design: key: 0 = normal development, 5 = all killed; conditions: 500 g/ha, 3 weeks, glass house 25° C.
Procedure: as §1, §6, §7, §8, §5

common lambsquarters [21] = assay: Soil treatment test for upland field; assay type: in vivo, Chenopodium album; design: key: 0 = normal development, 5 = all killed; conditions: 500 g/ha, 3 weeks, glass house 25° C.
Procedure: as §1, §6, §7, §8, §5

annual bluegrass [22] = assay: Foliar spread test for upland field; assay type: in vivo, Poa annua; design: key: 0 = normal development, 5 = all killed (6 ranks vs. untreated); conditions: foliar spray, 500 ppm, 3 weeks, glass house 25° C.
Procedure: as §1, §2, §3, §4, §5

velvetleaf [23] = assay: Foliar spread test for upland field; assay type: in vivo, Abutilon theophrasti; design: key: 0 = normal development, 5 = all killed (6 ranks vs. untreated); conditions: foliar spray, 500 ppm, 3 weeks, glass house 25° C.
Procedure: as §1, §2, §3, §4, §5

common lambsquarters [24] = assay: Foliar spread test for upland field; assay type: in vivo, Chenopodium album; design: key: 0 = normal development, 5 = all killed (6 ranks vs. untreated); conditions: foliar spray, 500 ppm, 3 weeks, glass house 25° C.
Procedure: as §1, §2, §3, §4, §5

Large crabgrass [25] = assay: Foliar spread test for upland field; assay type: in vivo, Digitaria adscendens; design: key: 0 = normal development, 5 = all killed (6 ranks vs. untreated); conditions: foliar spray, 500 ppm, 3 weeks, glass house 25° C.
Procedure: as §1, §2, §3, §4, §5

blackgrass [26] = assay: Soil treatment test for upland field; assay type: in vivo, Alopecurus aegualis; design: key: 0 = normal development, 5 = all killed; conditions: 500 g/ha, 3 weeks, glass house 25° C.
Procedure: as §1, §6, §7, §8, §5

Row | SMILES | Effects Corn (corn [1]) | Effects Sotton (cotton) | Effects Soybean (soybean [2]) | Effects Sugar beat (sugar beat [3]) | Effects Wheat (wheat [4]) | Effects Solgum (solgum [5]) | Effects Barnyardgrass (barnyard grass) | Effects Blackgrass (blackgrass [6]) | Effects Corn (corn [7]) | Effects Soybean (soybean [8]) | Effects Sugar beat (sugar beat [9]) | Effects Wheat (wheat [10]) | Effects Solgum (solgum [11]) | Effects Morning glory (morning glory [12]) | Effects Livid amaranth (livid amaranth [13]) | Effects Annual bluegrass (annual bluegrass [14]) | Effects Morning glory (morning glory [15]) | Effects Barnyardgrass (barnyardgrjass) | Effects Large crabgrass (Large crabgrass [16]) | Effects Velvetleaf (velvetleaf [17]) | further results
1 | CC/C(=C\c1cccc(C(F)(F)F)c1)c1nc2cc(Cl)ccc2o1 [I-c-55, (E)-2-(5-chlorobenzoxazol-2-yl)-1-(3-trifluoromethylphenyl)butene] | 3 | 4 | 5 | 5 | 3 | 3 | 5 | 4 | 1 | 4 | 5 | 0 | 1 | 5 | 4 | 5 | 5 | 4 | 5 | 5 | Effects Green foxtail (green foxtail [18]): 5; Effects Green foxtail (green foxtail [19]): 5; Effects Livid amaranth (livid amaranth [20]): 5; Effects Common lambsquarters (common lambsquarters [21]): 5; Effects Annual bluegrass (annual bluegrass [22]): 4; Effects Velvetleaf (velvetleaf [23]): 4; Effects Common lambsquarters (common lambsquarters [24]): 5; Effects Large crabgrass (Large crabgrass [25]): 4; Effects Blackgrass (blackgrass [26]): 5
2 | CCC(=Cc1cccc(C(F)(F)F)c1)c1nc2cc(Cl)c(C)cc2o1 [I-c-131] | 3 | 5 | 5 | 4 | 2 | 2 | 5 | 4 | 1 | 1 | 5 | 1 | 3 | 5 | 5 | 5 | 5 | 3 | 5 | 5 | Effects Green foxtail (green foxtail [18]): 5; Effects Green foxtail (green foxtail [19]): 4; Effects Livid amaranth (livid amaranth [20]): 5; Effects Common lambsquarters (common lambsquarters [21]): 5; Effects Annual bluegrass (annual bluegrass [22]): 4; Effects Velvetleaf (velvetleaf [23]): 4; Effects Common lambsquarters (common lambsquarters [24]): 5; Effects Large crabgrass (Large crabgrass [25]): 4; Effects Blackgrass (blackgrass [26]): 5
3 | CCC(=Cc1cccc(C(F)(F)F)c1)c1nc2cc([N+](=O)[O-])ccc2o1 [I-c-72] | 3 | 4 | 5 | 4 | 2 | 3 | 5 | 3 | 2 | 5 | 5 | 2 | 3 | 4 | 5 | 5 | 5 | 3 | 5 | 5 | Effects Green foxtail (green foxtail [18]): 5; Effects Green foxtail (green foxtail [19]): 4; Effects Livid amaranth (livid amaranth [20]): 5; Effects Common lambsquarters (common lambsquarters [21]): 5; Effects Annual bluegrass (annual bluegrass [22]): 4; Effects Velvetleaf (velvetleaf [23]): 3; Effects Common lambsquarters (common lambsquarters [24]): 5; Effects Large crabgrass (Large crabgrass [25]): 4; Effects Blackgrass (blackgrass [26]): 5
4 | CC(=Cc1cccc(C(F)(F)F)c1)c1nc2cc(C#N)c(F)cc2o1 [I-c-135] | 2 | 4 | 4 | 5 | 2 | 3 | 4 | 5 | 1 | 2 | 5 | 1 | 1 | 4 | 5 | 5 | 5 | 3 | 5 | 5 | Effects Green foxtail (green foxtail [18]): 5; Effects Green foxtail (green foxtail [19]): 5; Effects Livid amaranth (livid amaranth [20]): 5; Effects Common lambsquarters (common lambsquarters [21]): 5; Effects Annual bluegrass (annual bluegrass [22]): 5; Effects Velvetleaf (velvetleaf [23]): 4; Effects Common lambsquarters (common lambsquarters [24]): 5; Effects Large crabgrass (Large crabgrass [25]): 4; Effects Blackgrass (blackgrass [26]): 5
5 | CCCC(=Cc1cccc(C(F)(F)F)c1)c1nc2cc(C(F)(F)F)ccc2o1 [I-c-88] | 4 | 5 | 5 | 5 | 2 | 3 | 5 | 5 | 3 | 5 | 5 | 2 | 4 | 5 | 5 | 5 | 5 | 2 | 5 | 5 | Effects Green foxtail (green foxtail [18]): 5; Effects Green foxtail (green foxtail [19]): 5; Effects Livid amaranth (livid amaranth [20]): 5; Effects Common lambsquarters (common lambsquarters [21]): 5; Effects Annual bluegrass (annual bluegrass [22]): 4; Effects Velvetleaf (velvetleaf [23]): 4; Effects Common lambsquarters (common lambsquarters [24]): 5; Effects Large crabgrass (Large crabgrass [25]): 4; Effects Blackgrass (blackgrass [26]): 5
